{"source": "ChEMBL document CHEMBL1150976", "about": "“The selectivity of protein kinase inhibitors: a further update” (Biochem J, 2007)", "key": {"[1]": {"target": "Homeodomain-interacting protein kinase 3 (Homo sapiens) (UniProt Q9H422)", "sequence (Q9H422 whole entry, looked up)": "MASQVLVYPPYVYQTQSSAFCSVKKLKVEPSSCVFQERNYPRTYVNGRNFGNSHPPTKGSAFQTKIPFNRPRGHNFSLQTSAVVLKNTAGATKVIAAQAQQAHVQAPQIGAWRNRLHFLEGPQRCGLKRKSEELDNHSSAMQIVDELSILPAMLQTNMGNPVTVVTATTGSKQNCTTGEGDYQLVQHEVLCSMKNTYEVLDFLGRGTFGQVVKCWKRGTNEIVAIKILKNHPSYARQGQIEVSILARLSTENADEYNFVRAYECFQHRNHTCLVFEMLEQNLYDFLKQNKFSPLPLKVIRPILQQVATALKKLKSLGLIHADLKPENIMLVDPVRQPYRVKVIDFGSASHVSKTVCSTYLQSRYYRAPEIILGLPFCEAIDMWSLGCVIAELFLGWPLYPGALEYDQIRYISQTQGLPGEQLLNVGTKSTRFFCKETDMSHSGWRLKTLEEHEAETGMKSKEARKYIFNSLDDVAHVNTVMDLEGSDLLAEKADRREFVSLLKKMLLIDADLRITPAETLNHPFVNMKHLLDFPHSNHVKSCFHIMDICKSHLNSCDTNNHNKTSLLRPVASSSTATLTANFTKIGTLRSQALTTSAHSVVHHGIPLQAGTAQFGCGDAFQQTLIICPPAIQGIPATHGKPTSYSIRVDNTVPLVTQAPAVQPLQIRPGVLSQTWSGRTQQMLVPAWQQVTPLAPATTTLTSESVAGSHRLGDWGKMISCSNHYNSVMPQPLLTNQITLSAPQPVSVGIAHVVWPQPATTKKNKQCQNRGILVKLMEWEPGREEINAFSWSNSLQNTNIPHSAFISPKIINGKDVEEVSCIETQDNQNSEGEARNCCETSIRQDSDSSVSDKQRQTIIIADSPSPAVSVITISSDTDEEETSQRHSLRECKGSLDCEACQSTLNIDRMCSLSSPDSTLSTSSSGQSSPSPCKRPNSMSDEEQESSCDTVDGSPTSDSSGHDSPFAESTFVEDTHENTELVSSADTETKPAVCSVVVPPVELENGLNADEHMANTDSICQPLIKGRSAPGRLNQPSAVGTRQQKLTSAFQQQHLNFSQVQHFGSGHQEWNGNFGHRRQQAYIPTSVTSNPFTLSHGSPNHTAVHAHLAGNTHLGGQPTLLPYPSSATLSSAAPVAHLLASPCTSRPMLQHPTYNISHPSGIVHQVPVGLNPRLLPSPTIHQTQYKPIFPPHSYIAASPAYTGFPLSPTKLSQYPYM", "experiment": "Percentage HIPK3 activity remaining in the presence of 0.1uM inhibitor"}, "[2]": {"target": "T1, Dual specificity tyrosine-phosphorylation-regulated kinase 3 (Homo sapiens) (UniProt O43781)", "T1 sequence (whole entry)": "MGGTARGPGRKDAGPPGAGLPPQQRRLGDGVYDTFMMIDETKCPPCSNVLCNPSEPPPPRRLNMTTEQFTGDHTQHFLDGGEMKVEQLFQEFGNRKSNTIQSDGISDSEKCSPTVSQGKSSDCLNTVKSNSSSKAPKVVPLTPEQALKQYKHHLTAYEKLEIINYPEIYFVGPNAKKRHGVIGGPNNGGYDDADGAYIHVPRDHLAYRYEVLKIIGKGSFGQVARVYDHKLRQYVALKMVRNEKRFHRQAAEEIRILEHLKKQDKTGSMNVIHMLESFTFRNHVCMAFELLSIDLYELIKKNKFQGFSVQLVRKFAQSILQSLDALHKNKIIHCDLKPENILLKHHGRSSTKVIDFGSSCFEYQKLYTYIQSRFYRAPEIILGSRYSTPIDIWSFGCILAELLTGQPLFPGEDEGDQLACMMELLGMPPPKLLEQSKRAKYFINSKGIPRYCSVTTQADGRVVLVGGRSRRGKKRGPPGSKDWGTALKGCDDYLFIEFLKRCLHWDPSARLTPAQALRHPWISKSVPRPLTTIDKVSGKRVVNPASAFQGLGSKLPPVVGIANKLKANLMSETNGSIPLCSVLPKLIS", "experiment": "Percentage DYRK3 activity remaining in the presence of 0.01uM inhibitor"}, "[3]": {"target": "T2, Mitogen-activated protein kinase 12 (Homo sapiens) (UniProt P53778)", "T2 sequence (whole entry)": "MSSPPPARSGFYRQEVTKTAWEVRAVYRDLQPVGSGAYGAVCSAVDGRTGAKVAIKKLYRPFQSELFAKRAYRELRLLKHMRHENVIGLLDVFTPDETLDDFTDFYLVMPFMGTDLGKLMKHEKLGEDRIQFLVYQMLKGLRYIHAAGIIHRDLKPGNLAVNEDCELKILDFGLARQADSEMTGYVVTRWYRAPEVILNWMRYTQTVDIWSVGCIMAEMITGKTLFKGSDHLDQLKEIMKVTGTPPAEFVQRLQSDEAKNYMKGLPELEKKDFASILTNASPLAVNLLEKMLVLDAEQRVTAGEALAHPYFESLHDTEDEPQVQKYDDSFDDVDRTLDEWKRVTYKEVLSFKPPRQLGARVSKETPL", "experiment": "Percentage p38-gamma activity remaining in the presence of 25uM inhibitor"}, "[4]": {"target": "T3, Serine/threonine-protein kinase D1 (Homo sapiens) (UniProt Q15139)", "T3 sequence (whole entry)": "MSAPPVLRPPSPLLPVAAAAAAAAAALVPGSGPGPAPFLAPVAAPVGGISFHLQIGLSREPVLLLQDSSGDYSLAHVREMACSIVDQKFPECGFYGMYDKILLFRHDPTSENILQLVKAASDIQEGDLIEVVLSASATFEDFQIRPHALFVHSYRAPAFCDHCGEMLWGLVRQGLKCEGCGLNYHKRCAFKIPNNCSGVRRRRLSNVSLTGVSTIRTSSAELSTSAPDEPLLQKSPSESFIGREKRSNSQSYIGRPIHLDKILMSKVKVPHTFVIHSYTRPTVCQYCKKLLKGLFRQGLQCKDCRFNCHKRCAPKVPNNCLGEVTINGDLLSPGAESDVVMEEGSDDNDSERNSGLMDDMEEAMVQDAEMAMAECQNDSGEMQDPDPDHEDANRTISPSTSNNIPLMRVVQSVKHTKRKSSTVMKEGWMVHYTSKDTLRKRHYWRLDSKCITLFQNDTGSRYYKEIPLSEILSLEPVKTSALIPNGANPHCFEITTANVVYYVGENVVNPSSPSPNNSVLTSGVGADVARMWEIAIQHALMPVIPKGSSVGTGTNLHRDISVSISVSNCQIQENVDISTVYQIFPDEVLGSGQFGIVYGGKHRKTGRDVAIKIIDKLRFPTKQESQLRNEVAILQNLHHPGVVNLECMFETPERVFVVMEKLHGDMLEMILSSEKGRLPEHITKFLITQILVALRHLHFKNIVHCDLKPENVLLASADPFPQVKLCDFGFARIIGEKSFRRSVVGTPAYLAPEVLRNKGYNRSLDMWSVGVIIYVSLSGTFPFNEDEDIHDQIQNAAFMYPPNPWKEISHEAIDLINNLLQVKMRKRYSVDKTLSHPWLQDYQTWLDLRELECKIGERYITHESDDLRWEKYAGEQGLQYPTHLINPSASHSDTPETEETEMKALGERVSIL", "experiment": "Percentage PKD1 activity remaining in the presence of 25uM inhibitor"}, "[5]": {"target": "Aurora kinase B (Homo sapiens, UniProt Q96GD4)", "sequence (Q96GD4 whole entry)": "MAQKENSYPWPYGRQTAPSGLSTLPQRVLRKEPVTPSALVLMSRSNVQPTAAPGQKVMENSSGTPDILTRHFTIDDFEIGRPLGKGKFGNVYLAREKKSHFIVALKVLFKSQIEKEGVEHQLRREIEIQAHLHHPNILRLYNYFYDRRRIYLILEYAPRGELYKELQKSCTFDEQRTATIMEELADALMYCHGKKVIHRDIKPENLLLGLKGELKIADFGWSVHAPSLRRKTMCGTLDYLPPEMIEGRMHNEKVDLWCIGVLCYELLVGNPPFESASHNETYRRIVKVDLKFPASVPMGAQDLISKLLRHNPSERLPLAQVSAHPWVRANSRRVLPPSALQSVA", "experiment": "Percentage Aurora B activity remaining in the presence of 25uM inhibitor"}, "[6]": {"target": "Rho-associated protein kinase 2 (Homo sapiens) (UniProt O75116)", "sequence (O75116 whole entry, looked up)": "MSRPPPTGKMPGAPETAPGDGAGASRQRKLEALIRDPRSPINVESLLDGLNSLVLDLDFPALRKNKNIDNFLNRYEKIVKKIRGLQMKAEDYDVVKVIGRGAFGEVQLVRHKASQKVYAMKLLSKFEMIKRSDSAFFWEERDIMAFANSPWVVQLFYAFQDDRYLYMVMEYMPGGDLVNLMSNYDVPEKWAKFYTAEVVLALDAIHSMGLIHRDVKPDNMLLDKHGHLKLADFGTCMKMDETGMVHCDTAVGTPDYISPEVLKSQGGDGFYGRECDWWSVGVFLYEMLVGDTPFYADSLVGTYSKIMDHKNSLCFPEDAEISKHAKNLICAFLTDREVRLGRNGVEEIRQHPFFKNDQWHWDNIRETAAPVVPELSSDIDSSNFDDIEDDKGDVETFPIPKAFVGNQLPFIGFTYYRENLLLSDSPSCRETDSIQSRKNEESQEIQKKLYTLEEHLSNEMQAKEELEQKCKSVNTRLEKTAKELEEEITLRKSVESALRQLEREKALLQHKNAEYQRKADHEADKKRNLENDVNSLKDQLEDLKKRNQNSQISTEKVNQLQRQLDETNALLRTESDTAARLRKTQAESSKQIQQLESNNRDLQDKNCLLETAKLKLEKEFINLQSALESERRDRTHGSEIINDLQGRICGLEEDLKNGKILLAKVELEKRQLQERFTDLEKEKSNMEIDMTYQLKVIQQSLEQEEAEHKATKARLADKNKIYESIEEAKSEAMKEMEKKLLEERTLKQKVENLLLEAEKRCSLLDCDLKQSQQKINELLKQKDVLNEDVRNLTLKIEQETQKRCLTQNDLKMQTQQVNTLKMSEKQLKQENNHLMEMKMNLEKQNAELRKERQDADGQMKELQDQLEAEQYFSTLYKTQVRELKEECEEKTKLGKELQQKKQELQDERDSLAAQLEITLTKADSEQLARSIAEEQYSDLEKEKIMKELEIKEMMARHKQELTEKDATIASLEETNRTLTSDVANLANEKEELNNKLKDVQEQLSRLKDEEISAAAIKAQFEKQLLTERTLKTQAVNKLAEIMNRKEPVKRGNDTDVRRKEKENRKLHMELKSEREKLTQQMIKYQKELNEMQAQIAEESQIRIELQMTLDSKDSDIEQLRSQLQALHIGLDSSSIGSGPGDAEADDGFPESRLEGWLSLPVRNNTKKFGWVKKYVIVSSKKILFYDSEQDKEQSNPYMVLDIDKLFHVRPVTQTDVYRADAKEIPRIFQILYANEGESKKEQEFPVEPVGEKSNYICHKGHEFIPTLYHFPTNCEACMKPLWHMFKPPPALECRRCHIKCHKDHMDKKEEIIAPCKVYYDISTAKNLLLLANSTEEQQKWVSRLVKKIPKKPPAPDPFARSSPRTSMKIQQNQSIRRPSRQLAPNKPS", "experiment": "Percentage ROCK2 activity remaining in the presence of 25uM inhibitor"}, "[7]": {"target": "MAP kinase-activated protein kinase 3 (Homo sapiens) (UniProt Q16644)", "sequence (Q16644 whole entry, looked up)": "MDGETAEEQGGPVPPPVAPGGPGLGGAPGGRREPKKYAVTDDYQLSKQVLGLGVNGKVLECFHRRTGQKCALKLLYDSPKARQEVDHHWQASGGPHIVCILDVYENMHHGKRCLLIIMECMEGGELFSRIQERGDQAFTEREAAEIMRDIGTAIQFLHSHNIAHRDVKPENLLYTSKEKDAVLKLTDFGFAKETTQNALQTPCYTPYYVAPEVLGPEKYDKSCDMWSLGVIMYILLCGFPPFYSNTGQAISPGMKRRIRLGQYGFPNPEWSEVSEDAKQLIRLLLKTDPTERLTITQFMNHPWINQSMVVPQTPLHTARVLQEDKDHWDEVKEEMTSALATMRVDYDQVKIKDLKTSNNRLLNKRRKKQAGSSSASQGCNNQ", "experiment": "Percentage MAPKAPK3 activity remaining in the presence of […]uM inhibitor", "settings": "at 25 µM"}, "[8]": {"target": "Maternal embryonic leucine zipper kinase (Homo sapiens) (UniProt Q14680)", "sequence (Q14680 whole entry, looked up)": "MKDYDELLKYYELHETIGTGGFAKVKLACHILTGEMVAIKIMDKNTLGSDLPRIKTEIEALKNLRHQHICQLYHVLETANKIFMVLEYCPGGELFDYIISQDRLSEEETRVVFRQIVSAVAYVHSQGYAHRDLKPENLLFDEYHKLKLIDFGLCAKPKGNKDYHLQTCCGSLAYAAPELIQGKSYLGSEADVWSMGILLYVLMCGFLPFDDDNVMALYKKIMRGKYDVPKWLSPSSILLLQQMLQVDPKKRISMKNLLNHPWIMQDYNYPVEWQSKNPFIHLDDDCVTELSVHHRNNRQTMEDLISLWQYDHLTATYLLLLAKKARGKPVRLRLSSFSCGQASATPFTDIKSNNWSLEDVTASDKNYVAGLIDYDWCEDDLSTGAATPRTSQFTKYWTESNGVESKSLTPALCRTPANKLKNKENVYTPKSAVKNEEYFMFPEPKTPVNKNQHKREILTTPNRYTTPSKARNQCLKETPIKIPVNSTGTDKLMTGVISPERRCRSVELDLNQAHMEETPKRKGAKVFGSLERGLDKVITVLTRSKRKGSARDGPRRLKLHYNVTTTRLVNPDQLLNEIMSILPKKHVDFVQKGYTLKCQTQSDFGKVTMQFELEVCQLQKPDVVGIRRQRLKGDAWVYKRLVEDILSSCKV", "experiment": "Percentage MELK activity remaining in the presence of 25uM inhibitor"}, "[9]": {"target": "MAP kinase-interacting serine/threonine-protein kinase 1 (Homo sapiens) (UniProt Q9BUB5)", "sequence (Q9BUB5 whole entry, looked up)": "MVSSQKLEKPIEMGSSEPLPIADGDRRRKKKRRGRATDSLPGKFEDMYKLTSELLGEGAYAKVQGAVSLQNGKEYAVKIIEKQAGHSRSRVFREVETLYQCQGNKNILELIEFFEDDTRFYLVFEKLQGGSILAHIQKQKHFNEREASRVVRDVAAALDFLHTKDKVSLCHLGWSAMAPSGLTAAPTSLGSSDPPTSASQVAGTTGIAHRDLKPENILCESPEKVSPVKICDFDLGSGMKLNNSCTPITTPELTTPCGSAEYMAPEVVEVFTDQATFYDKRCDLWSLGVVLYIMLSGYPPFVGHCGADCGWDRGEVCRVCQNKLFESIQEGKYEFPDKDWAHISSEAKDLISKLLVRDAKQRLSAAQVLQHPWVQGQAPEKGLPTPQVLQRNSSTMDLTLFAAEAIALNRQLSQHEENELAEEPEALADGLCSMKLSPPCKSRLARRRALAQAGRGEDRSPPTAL", "experiment": "Percentage MNK1 activity remaining in the presence of 25uM inhibitor"}, "[10]": {"target": "Dual specificity tyrosine-phosphorylation-regulated kinase 1A (Homo sapiens) (UniProt Q13627)", "experiment": "Percentage DYRK1A activity remaining in the presence of 25uM inhibitor"}}}
{"smiles": "CC(C)CCN1c2nc(Nc3cc(F)c(O)c(F)c3)ncc2N(C)C(=O)C1C", "note": "(centres undefined)", "values": [{"measurement": "Activity", "setting": "[1]", "result": 104, "unit": "%"}]}
{"smiles": "O=C(NCCCNc1nc(Nc2cccc(NC(=O)N3CCCC3)c2)ncc1I)c1cccs1", "values": [{"measurement": "Activity", "setting": "[1]", "result": 94, "unit": "%"}, {"measurement": "Activity", "setting": "[2]", "result": 85, "unit": "%"}]}
{"smiles": "COc1cc(OC)c(/C=C2/C(=O)Nc3ccccc32)c(OC)c1", "values": [{"measurement": "Activity", "setting": "[3]", "result": 93, "unit": "%"}, {"measurement": "Activity", "setting": "[4]", "result": 62, "unit": "%"}, {"measurement": "Activity", "setting": "[5]", "result": 75, "unit": "%"}, {"measurement": "Activity", "setting": "[6]", "result": 78, "unit": "%"}, {"measurement": "Activity", "setting": "[7]", "result": 94, "unit": "%"}, {"measurement": "Activity", "setting": "[8]", "result": 75, "unit": "%"}, {"measurement": "Activity", "setting": "[9]", "result": 79, "unit": "%"}, {"measurement": "Activity", "setting": "[10]", "result": 73, "unit": "%"}]}
{"smiles": "Cc1n[nH]c2ccc(-c3cncc(OC[C@@H](N)Cc4c[nH]c5ccccc45)c3)cc12", "values": [{"measurement": "Activity", "setting": "[1]", "result": 71, "unit": "%"}, {"measurement": "Activity", "setting": "[2]; filed as antagonist", "result": 41, "unit": "%"}]}
{"smiles": "Cn1c2ccccc2c2c3c(c4c5ccccc5n(CCC#N)c4c21)CNC3=O", "values": [{"measurement": "Activity", "setting": "[1]", "result": 74, "unit": "%"}]}
{"smiles": "CN[C@@H]1C[C@H]2O[C@@](C)([C@@H]1OC)n1c3ccccc3c3c4c(c5c6ccccc6n2c5c31)C(=O)N[C@H]4O", "note": "(stereo in doubt)", "values": [{"measurement": "Activity", "setting": "[2]", "result": 84, "unit": "%"}]}
{"smiles": "Cn1cc(C2=C(c3cn(CCCSC(=N)N)c4ccccc34)C(=O)NC2=O)c2ccccc21", "values": [{"measurement": "Activity", "setting": "[1]", "result": 78, "unit": "%"}]}
{"smiles": "NCCNS(=O)(=O)c1ccc(Cl)c2ccncc12", "values": [{"measurement": "Activity", "setting": "[3]", "result": 102, "unit": "%"}, {"measurement": "Activity", "setting": "[4]", "result": 60, "unit": "%"}, {"measurement": "Activity", "setting": "[5]", "result": 78, "unit": "%"}, {"measurement": "Activity", "setting": "[6]", "result": 65, "unit": "%"}, {"measurement": "Activity", "setting": "[7]", "result": 86, "unit": "%"}, {"measurement": "Activity", "setting": "[8]", "result": 63, "unit": "%"}, {"measurement": "Activity", "setting": "[9]; filed as antagonist", "result": 26, "unit": "%"}, {"measurement": "Activity", "setting": "[10]; filed as antagonist", "result": 39, "unit": "%"}]}
